Source: patent US8629175B2, “Functional food additives” (priority 2009, dated 2014)

How the values were obtained:
[1] = acute food intake experiment in rats; type: in vivo
Method: An acute experiment with rats has been conducted recently after complying with Swedish Ethical regulations. Seven groups of rats (n=4-5) were given an acute test dose (100-200 mg/kg) of the control vehicle (rapeseed oil) and test conjugates. Part of the results is shown here in FIG. 4.

[2] = antioxidant (antiradical) activity using DPPH radical
Method: The antioxidant (AO) activity of DAG-DHLA was determined using DPPH. radical following the published methods (Brand-Williams, W. et al. (1995). Lebensm. Wiss. U.-Technol. 28:25-30).
Antioxidant solution in toluene (0.1 mL) was added to 3.9 mL of a 6×10^−5 mol/L toluene DPPH. solution. Absorbance was determined at 515 nm at 0 min, and every 30 min until the reaction reached a plateau. For each DAG-DHLA concentration tested, the reaction kinetics was plotted. From this graph, the percentage of DPPH. remaining at the steady state was recorded and the values transferred onto another graph showing the percentage of residual DPPH. at the steady state as a function of the molar ratio of antioxidant to DPPH..

Structure (SMILES) | acute food intake ([1]; acute test dose (100-200 mg/kg), compared with the DAG-DHLA result) | antioxidant activity (in words) ([2]; DPPH. in toluene, in parallel, compared with DAG-DHLA) | acute food intake ([1]; acute test dose 200 mg/kg, after 4 hours, compared to vehicle (rapeseed oil), FIG. 4) | EC50 (Efficient concentration), amount of antioxidant necessary to decrease the initial DPPH. concentration by 50% ([2]; 6×10^−5 mol/L DPPH. in toluene, steady state, 515 nm) | Number of reduced DPPH. (1/EC100), DPPH. moles reduced by one mole of antioxidant ([2]; DPPH. in toluene) | Kinetic behaviour ([2]; reaction with DPPH. in toluene, absorbance at 515 nm)
CCCCCCCC/C=C\CCCCCCCC(=O)OCC(COC(=O)CCCCCCC/C=C\CCCCCCCC)OC(=O)CCCCC1CCSS1 (stereo not drawn) [compound 1, 1,3-Dioleoyl-2-lipoyl-sn-glycerol] | Rather similar result | negligible antioxidant activity |  |  |  | 
CCCCCCCC/C=C\CCCCCCCC(=O)OCC(COC(=O)CCCCCCC/C=C\CCCCCCCC)OC(=O)CCCCC(S)CCS (stereo not drawn) [compound 2, 1,3-Dioleoyl-2-dihydrolipoate-sn-glycerol] |  |  | seems to block food intake | 0.21 (mol/L) AO/(mol/L) DPPH. | 2.34 | Rapid
